Experimental data published in ChEMBL document CHEMBL1909046, “DrugMatrix in vitro pharmacology data”.

How the values were obtained:
Neutrophil elastase = molecular target: T1, Neutrophil elastase (Homo sapiens, UniProt P08246); assay type: tissue-based;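 also: inhibition of neutrophil elastase enzyme activity, measured with a p-nitroanilide-linked peptide substrate; in other assays of this panel Not Active means under 50% inhibition at 10 µM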
T1 sequence (P08246 whole entry): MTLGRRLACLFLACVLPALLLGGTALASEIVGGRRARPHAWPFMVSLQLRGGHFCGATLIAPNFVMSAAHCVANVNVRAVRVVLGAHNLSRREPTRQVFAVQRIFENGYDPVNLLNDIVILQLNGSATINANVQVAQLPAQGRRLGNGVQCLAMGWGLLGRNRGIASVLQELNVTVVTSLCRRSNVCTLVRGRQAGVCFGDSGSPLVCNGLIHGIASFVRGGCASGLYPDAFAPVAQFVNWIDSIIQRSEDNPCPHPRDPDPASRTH

[1] = molecular target: T2, Neuropeptide Y receptor type 1 (Homo sapiens, UniProt P25929); assay type: cell membranes, Membrane; conditions: sk-n-mc; also: in other assays of this panel Not Active means under 50% inhibition at 10 µM
T2 sequence (P25929 whole entry): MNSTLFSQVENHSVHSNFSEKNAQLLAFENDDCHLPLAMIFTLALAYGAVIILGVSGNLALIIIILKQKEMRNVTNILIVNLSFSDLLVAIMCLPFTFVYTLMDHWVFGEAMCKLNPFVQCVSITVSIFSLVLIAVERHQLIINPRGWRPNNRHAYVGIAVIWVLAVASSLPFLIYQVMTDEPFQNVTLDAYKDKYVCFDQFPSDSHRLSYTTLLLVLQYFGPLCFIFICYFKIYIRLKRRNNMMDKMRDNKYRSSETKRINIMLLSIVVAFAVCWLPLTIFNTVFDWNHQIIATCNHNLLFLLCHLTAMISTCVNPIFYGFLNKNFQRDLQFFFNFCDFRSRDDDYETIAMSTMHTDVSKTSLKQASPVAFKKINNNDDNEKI

Cytochrome P450 2E1 = Cytochrome P450 2E1 (Homo sapiens, UniProt P05181); conditions: bti-tn-5b1-4; also: in other assays of this panel Not Active means under 50% inhibition at 10 µM
Sequence of Cytochrome P450 2E1 (P05181 whole entry): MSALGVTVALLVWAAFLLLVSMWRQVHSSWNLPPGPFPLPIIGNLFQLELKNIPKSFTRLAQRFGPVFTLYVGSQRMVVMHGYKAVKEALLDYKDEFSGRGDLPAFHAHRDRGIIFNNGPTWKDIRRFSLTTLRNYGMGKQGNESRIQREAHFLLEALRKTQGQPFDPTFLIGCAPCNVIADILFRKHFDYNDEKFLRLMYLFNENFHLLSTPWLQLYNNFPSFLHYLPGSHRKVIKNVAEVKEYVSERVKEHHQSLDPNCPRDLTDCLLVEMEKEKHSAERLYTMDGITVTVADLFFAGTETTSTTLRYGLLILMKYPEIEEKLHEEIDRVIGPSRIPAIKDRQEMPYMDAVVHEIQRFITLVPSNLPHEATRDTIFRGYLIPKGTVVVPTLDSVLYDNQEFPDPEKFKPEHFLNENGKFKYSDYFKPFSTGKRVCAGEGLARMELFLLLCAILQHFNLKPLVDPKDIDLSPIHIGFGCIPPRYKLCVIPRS

[2] = molecular target: Delta-type opioid receptor (Homo sapiens, UniProt P41143); assay type: cell membranes, Membrane; conditions: hek293; also: in other assays of this panel Not Active means under 50% inhibition at 10 µM
Sequence of Delta-type opioid receptor (P41143 whole entry): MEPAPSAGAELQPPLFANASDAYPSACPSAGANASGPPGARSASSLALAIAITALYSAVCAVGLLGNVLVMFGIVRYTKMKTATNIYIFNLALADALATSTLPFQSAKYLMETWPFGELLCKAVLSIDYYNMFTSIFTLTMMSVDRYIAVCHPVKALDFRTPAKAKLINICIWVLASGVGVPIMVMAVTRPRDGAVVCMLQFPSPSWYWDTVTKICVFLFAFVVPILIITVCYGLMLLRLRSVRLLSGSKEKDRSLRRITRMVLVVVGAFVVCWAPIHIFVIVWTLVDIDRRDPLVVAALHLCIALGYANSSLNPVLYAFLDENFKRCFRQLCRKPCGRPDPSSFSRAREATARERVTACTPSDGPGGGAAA

[3] = DRUGMATRIX: beta-Lactamase enzyme inhibition (substrate: Nitrocefin); design: species or system Bacillus cereus; conditions: Not Active = under 50% inhibition at 10 µM
[4] = DRUGMATRIX: Phosphodiesterase PDE4 enzyme inhibition (substrate: [3H]cAMP + cAMP); conditions: u-937; Not Active = under 50% inhibition at 10 µM
[5] = DRUGMATRIX: Potassium Channel [KATP] radioligand binding (ligand: [3H] Glyburide); assay type: cell membranes, Membrane; conditions: hit-t15; Not Active = under 50% inhibition at 10 µM
[6] = DRUGMATRIX: Phosphodiesterase PDE3 enzyme inhibition (substrate: [3H]cAMP + cAMP); assay type: tissue-based, Homo sapiens; conditions: platelet; Not Active = under 50% inhibition at 10 µM
Estrogen receptor = molecular target: T3, Estrogen receptor (Homo sapiens, UniProt P03372); conditions: sf9; also: in other assays of this panel Not Active means under 50% inhibition at 10 µM
T3 sequence (P03372 whole entry): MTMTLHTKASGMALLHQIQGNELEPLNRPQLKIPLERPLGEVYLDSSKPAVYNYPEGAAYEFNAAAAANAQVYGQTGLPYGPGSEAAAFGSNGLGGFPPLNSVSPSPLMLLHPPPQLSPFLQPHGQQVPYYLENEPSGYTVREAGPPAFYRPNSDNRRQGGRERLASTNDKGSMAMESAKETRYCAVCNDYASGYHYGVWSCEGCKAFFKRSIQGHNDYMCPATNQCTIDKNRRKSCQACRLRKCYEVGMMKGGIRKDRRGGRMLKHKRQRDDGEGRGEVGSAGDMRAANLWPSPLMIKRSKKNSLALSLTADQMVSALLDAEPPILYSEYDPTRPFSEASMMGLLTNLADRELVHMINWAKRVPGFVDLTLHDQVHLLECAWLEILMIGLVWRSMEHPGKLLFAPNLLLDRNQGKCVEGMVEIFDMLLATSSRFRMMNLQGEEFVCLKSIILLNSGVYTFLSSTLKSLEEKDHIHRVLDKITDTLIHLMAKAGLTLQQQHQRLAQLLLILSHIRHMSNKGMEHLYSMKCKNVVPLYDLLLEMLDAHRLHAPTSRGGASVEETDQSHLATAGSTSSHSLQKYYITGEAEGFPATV

CCN(CC)CCOc1ccc(/C(=C(/Cl)c2ccccc2)c2ccccc2)cc1 [ENCLOMIPHENE]
Not Active: IC50 (Neutrophil elastase) | IC50 [1] | IC50 (Cytochrome P450 2E1) | Ki (Cytochrome P450 2E1) | IC50 [2]

CN(C/C=C/C#CC(C)(C)C)Cc1cccc2ccccc12 [TERBINAFINE]
Not Active: IC50 (Neutrophil elastase) | IC50 [3] | Ki [3] | IC50 [4] | Ki [4] | IC50 [1] | IC50 (Cytochrome P450 2E1) | Ki (Cytochrome P450 2E1) | IC50 [2] | IC50 [5] | Ki [5] | IC50 [6] | Ki [6]

Cn1c(=O)c2nc[nH]c2n(C)c1=O.O [THEOPHYLLINE]
Not Active: IC50 (Neutrophil elastase) | IC50 [3] | Ki [3] | IC50 [4] | Ki [4] | IC50 [1] | IC50 (Cytochrome P450 2E1) | Ki (Cytochrome P450 2E1) | IC50 [2] | IC50 [5] | Ki [5] | IC50 [6] | Ki [6]

CC(C)NCC(O)c1ccc(NS(C)(=O)=O)cc1 (stereo not drawn) [SOTALOL]
Not Active: IC50 (Neutrophil elastase) | IC50 [3] | Ki [3] | IC50 [4] | Ki [4] | IC50 [1] | IC50 (Cytochrome P450 2E1) | Ki (Cytochrome P450 2E1) | IC50 [2] | IC50 [5] | Ki [5] | IC50 [6] | Ki [6]

CC(C)NCC(O)c1ccc(O)c(O)c1 (stereo not drawn) [ISOPROTERENOL]
Not Active: IC50 (Neutrophil elastase) | IC50 [3] | Ki [3] | IC50 [4] | Ki [4] | IC50 [1] | IC50 (Cytochrome P450 2E1) | Ki (Cytochrome P450 2E1) | IC50 [2] | IC50 [5] | Ki [5] | IC50 [6] | Ki [6]

CN[C@H]1CC[C@@H](c2ccc(Cl)c(Cl)c2)c2ccccc21 [SERTRALINE]
Not Active: IC50 (Neutrophil elastase) | IC50 [1] | IC50 (Cytochrome P450 2E1) | Ki (Cytochrome P450 2E1) | IC50 [2] | IC50 (Estrogen receptor)

C[C@H]1C[C@@H]2[C@H]([C@@H](O)C[C@@]3(C)[C@H]2CC[C@]3(O)C(=O)CO)[C@@]2(C)C=CC(=O)C=C12 [METHYLPREDNISOLONE]
Not Active: IC50 (Neutrophil elastase) | IC50 [3] | Ki [3] | IC50 [4] | Ki [4] | IC50 [1] | IC50 (Cytochrome P450 2E1) | Ki (Cytochrome P450 2E1) | IC50 [2] | IC50 [5] | Ki [5] | IC50 [6] | Ki [6]

Fc1ccc(C(c2ccc(F)cc2)N2CCN(C/C=C/c3ccccc3)CC2)cc1 [FLUNARIZINE]
Not Active: IC50 (Neutrophil elastase) | IC50 [1] | IC50 (Cytochrome P450 2E1) | Ki (Cytochrome P450 2E1) | IC50 [2] | IC50 (Estrogen receptor)

COc1cc2nc(N3CCN(C(=O)C4CCCO4)CC3)nc(N)c2cc1OC (stereo not drawn) [TERAZOSIN]
Not Active: IC50 (Neutrophil elastase) | IC50 [3] | Ki [3] | IC50 [4] | Ki [4] | IC50 [1] | IC50 (Cytochrome P450 2E1) | Ki (Cytochrome P450 2E1) | IC50 [2] | IC50 [6] | Ki [6] | IC50 (Estrogen receptor)

O=C(O)c1cn(-c2ccc(F)cc2)c2cc(N3CCNCC3)c(F)cc2c1=O [SARAFLOXACIN]
Not Active: IC50 (Neutrophil elastase) | IC50 [3] | Ki [3] | IC50 [4] | Ki [4] | IC50 [1] | IC50 (Cytochrome P450 2E1) | Ki (Cytochrome P450 2E1) | IC50 [2] | IC50 [5] | Ki [5] | IC50 [6] | Ki [6]

CC[C@@H](C(=O)[C@@H](C)[C@@H](O)[C@H](C)[C@@H]1O[C@@H]([C@@H](CC)C(=O)O)CC[C@@H]1C)[C@H]1O[C@]2(C=C[C@@H](O)[C@]3(CC[C@@](C)([C@H]4CC[C@](O)(CC)[C@H](C)O4)O3)O2)[C@H](C)C[C@@H]1C [SALINOMYCIN]
Not Active: IC50 (Neutrophil elastase) | IC50 [3] | Ki [3] | IC50 [4] | Ki [4] | IC50 [1] | IC50 (Cytochrome P450 2E1) | Ki (Cytochrome P450 2E1) | IC50 [2] | IC50 [5] | Ki [5] | IC50 [6] | Ki [6]

CN(C)CCOC(c1ccccc1)c1ccccc1 [DIPHENHYDRAMINE]
Not Active: IC50 (Neutrophil elastase) | IC50 [1] | IC50 [2] | IC50 (Estrogen receptor)

CCCCNc1ccc(C(=O)OCCN(C)C)cc1 [TETRACAINE]
Not Active: IC50 (Neutrophil elastase) | IC50 [3] | Ki [3] | IC50 [4] | Ki [4] | IC50 [1] | IC50 (Cytochrome P450 2E1) | Ki (Cytochrome P450 2E1) | IC50 [2] | IC50 [5] | Ki [5] | IC50 [6] | Ki [6]

O.O.O.O.O.O.[Cl-].[Cl-].[Sr+2] [STRONTIUM CHLORIDE HEXAHYDRATE]
Not Active: IC50 (Neutrophil elastase) | IC50 [3] | Ki [3] | IC50 [4] | Ki [4] | IC50 [1] | IC50 (Cytochrome P450 2E1) | Ki (Cytochrome P450 2E1) | IC50 [2] | IC50 [6] | Ki [6]

CCN(CC)CC(=O)Nc1c(C)cccc1C [LIDOCAINE]
Not Active: IC50 (Neutrophil elastase) | IC50 [3] | Ki [3] | IC50 [4] | Ki [4] | IC50 [1] | IC50 (Cytochrome P450 2E1) | Ki (Cytochrome P450 2E1) | IC50 [2] | IC50 [5] | Ki [5] | IC50 [6] | Ki [6]

CNCCC(Oc1ccc(C(F)(F)F)cc1)c1ccccc1 (stereo not drawn) [FLUOXETINE]
Not Active: IC50 (Neutrophil elastase) | IC50 [1] | IC50 (Cytochrome P450 2E1) | Ki (Cytochrome P450 2E1) | IC50 [2]

COc1c2occc2cc2ccc(=O)oc12 [METHOXSALEN]
Not Active: IC50 (Neutrophil elastase) | IC50 [3] | Ki [3] | IC50 [4] | Ki [4] | IC50 [1] | IC50 (Cytochrome P450 2E1) | Ki (Cytochrome P450 2E1) | IC50 [2] | IC50 [5] | Ki [5] | IC50 [6] | Ki [6]

Cc1c(C)c2c(c(C)c1O)CCC(C)(CN1CCN(c3cc(N4CCCC4)nc(N4CCCC4)n3)CC1)O2 (stereo not drawn)
Not Active: IC50 (Neutrophil elastase) | IC50 [3] | Ki [3] | IC50 [4] | Ki [4] | IC50 [1] | IC50 [2] | IC50 [5] | Ki [5] | IC50 [6] | Ki [6] | IC50 (Estrogen receptor)

Cc1ccc(NC(=O)c2ccc(CN3CCN(C)CC3)cc2)cc1Nc1nccc(-c2cccnc2)n1 [IMATINIB]
Not Active: IC50 (Neutrophil elastase) | IC50 [1] | IC50 (Cytochrome P450 2E1) | Ki (Cytochrome P450 2E1) | IC50 [2] | IC50 (Estrogen receptor)

Clc1ccc(COC(Cn2ccnc2)c2ccc(Cl)cc2Cl)cc1 (stereo not drawn) [ECONAZOLE]
Not Active: IC50 (Neutrophil elastase) | IC50 [1] | IC50 (Cytochrome P450 2E1) | Ki (Cytochrome P450 2E1) | IC50 (Estrogen receptor)

CC(C)Oc1ccc2c(=O)c(-c3ccccc3)coc2c1 [IPRIFLAVONE]
Not Active: IC50 (Neutrophil elastase) | IC50 [3] | Ki [3] | IC50 [4] | Ki [4] | IC50 [1] | IC50 (Cytochrome P450 2E1) | Ki (Cytochrome P450 2E1) | IC50 [2] | IC50 [5] | Ki [5] | IC50 [6] | Ki [6]

CCN1CCC[C@H]1CNC(=O)c1cc(S(N)(=O)=O)ccc1OC [LEVOSULPIRIDE]
Not Active: IC50 (Neutrophil elastase) | IC50 [3] | Ki [3] | IC50 [4] | Ki [4] | IC50 [1] | IC50 (Cytochrome P450 2E1) | Ki (Cytochrome P450 2E1) | IC50 [2] | IC50 [5] | Ki [5] | IC50 [6] | Ki [6]
